Assay results taken from patent US9435738B2, “System and device for characterizing cells” (The Johns Hopkins University, priority 2011, dated 2016).

Test system: Mouse myoblasts (c2c12)
Test: microscopy-based assay measuring cell cycle phase and cell/nuclear properties simultaneously in the same cells
Settings: for cell cycle phase enriched / blocked by treatment: cell-cycle distribution vs control cells; for contribution to changes in nuclear size due to (uncontrolled) intrinsic changes in nuclear size in each phase / contribution to changes in nuclear size due to forced cell-cycle redistribution: population-averaged nuclear size, Eq. 2, FIG. 36 B; for time after release at which asynchronized (untreated) cell cycle distribution is recovered: release from synchronizing drug
Description: For each type of cell, ˜10,000 cells were plated on a glass bottom dish (World Precision Instruments, Sarasota, Fla.). After incubation for 48 h, the treatment for synchronization was applied. To serum-starve cells, cells were washed three times with Hanks' balanced salt solution (HBSS) (GBICO) and cultured in serum-free medium for 72 h. For synchronization at early S phase, cells were treated with 2 mM of thymidine for 18 h twice. Between these two treatments, cells were rinsed with HBSS three times and cultured in normal growth medium to release cell cycle for 9 h. To synchronize cells in the M phase, cells were first treated with 2 mM of thymidine for 24 h. Followed by rinsing with HBSS three times, cells were released with normal growth medium for 3 h. After the short release, cells were treated with 100 ng/ml of microtubule-depolymerizing drug nocodazole for 12 h.
Cells were fixed with 3.7% of formaldehyde (Sigma) for 15 min at room temperature (RT). After fixation, cells were permeabilized with 0.1% Triton X-100 (Sigma) for 10 min and blocked for nonspecific binding with phosphate-buffered saline (PBS) supplemented with 10% of goat serum for 30 min. Cells were incubated with specific concentration of dye diluted from stock solution for 1 h. Nuclear DNA was stained with Hoechst 33342 (Sigma) at 1:40 dilution, Cytoplasm was stained with HCS CellMask Cy5 (Invitrogen) at 1:20000 dilution. Actin was stained with Phalloidin 488 (Invitrogen) at 1:40 dilution. PBS rinse was conducted three times between each step.
Fluorescent images were collected with a Nikon DS-QiMc camera installed on a customized Nikon TE300 microscope with a 10× Plan Fluor lens (N.A. 0.3, Nikon Melville, N.Y.), a motorized stage, and motorized excitation and emission filters (Prior Scientific, Rockland, Mass.) controlled by Nikon NIS Elements. Eighty-one (9-by-9 grid) fields of views were consistently generated using the software Nikon NIS-Elements. The size of the image acquired from the camera was 1280×1024 pixels, and the pixel size was 0.57 μm for a 10× objective. Our ΔX and ΔY for image capture was 662 μm and 520 μm respectively to allow 10% overlay between adjacent fields. The total size of the scanning region (81 images) was ˜28.5 mm^2. Four different channels (UV, GFP, Cy5, and phase contrast) were collected for every field of view. The calibration glass-bottom dish contained dyes for three different fluorescent channels, UV, GFP, and Cy5. For each fluorescence channel, UV, GFP, and Cy5, two calibration images were acquired: with and without illumination. The calibration images were used to reduce the non-uniform illumination of fluorescent images. All of the phenotypic information was calculated with a custom high throughput program (written in Matlab) developed in our laboratory. Typically >1,000 cells were analyzed per different biological repeat (i.e. different cells) for a total >3,000 cells for each tested condition.
To precisely segment individual cells and nuclei, we used slightly different approaches based on the same principle. For nuclear segmentation, because of the relatively circular shape and relatively even intensity of the Hoechst stain, we filtered calibrated images (as described in the previous section) with a 23×23 pixel normalized Gaussian filter (similar scale as the size of nuclei) and an averaging filter (same size) to obtain IG (Gaussian intensity) and IM (averaged intensity). Subtracting IM from IG gives IN, the nuclear intensity values without regional background.
Because cells are larger than their nuclei, a larger size of filters was needed. However, one major limitation with spatial domain image filters is non-continuous edges. Increasing the size of the filter increases the size of this “non-trustable” region. The use of a spatial filter 2r+1 in size will lead to the loss of r+1 pixels from the edge because of incomplete information, which greatly reduces the usable image size. […]

SMILES | increase in mean size of cells in the G0/G1 phase compared to untreated (asynchronized) cells in the same phase (G0/G1 phase) [%] | increase in mean cell size in the G2/M phase compared to untreated (asynchronized) cells in the same phase [%] | mean size of treated cells in the S phase relative to mean size of untreated cells in the S phase (S phase) [times] | increase in mean size of cells in the S phase compared to untreated cells in the same phase (S phase, after forced synchronization) [%] | cell cycle phase enriched / blocked by treatment | contribution to changes in nuclear size due to (uncontrolled) intrinsic changes in nuclear size in each phase [%] | contribution to changes in nuclear size due to forced cell-cycle redistribution [%] | time after release at which asynchronized (untreated) cell cycle distribution is recovered [h] | decrease in nuclear size of cells in the G0/G1 phase (10 nM for 24 h, G0/G1 phase, P<0.0001) [%] | decrease in population-averaged cell size / nuclear size (10 nM for 24 h, population-averaged, accompanied by rounding of the nucleus) [%] | time after release during which cell properties continued to be affected (after removing inhibitor) | change in measured cell properties caused by synchronization (compared phase-to-phase to control cells) [%]
Cc1cn([C@H]2C[C@H](O)[C@@H](CO)O2)c(=O)[nH]c1=O [thymidine] | 130 | 220 | 2.2 | 120 | S phase | 91 | 9 | 24 | – | – | – | –
CCNc1cc(N[C@H]2CC[C@H](O)CC2)nc(Nc2ccc3c(ccn3Cc3ccccc3)c2)n1 [Cdk4/6 inhibitor IV, trans-4-((6-(ethylamino)-2-((1-(phenylmethyl)-1H-indol-5-yl)amino)-4-pyrimidinyl)amino)-cyclohexanol] | – | – | – | – | blocked cells in the G0/G1 phase | – | – | – | > 50 | ~50 | up to 6 h | –
COC(=O)Nc1nc2ccc(C(=O)c3cccs3)cc2[nH]1 [nocodazole] | – | 75 | – | – | M phase | 41 | 35 | 24 | – | – | – | > 30
